Laboratory results from the supplement of paper PMC9663587.

Tests used:
Assay in all cases: GRmax, 72 h; higher = less effect;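 also: breast cell lines in 384-well plates, nine doses across a 10^4 range, Dye Drop imaging of viable cells vs DMSO and time-zero plates, GR 0 means no net growth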
SUM149 = test system: SUM149
SUM159 = test system: SUM159
CAMA1 = test system: CAMA1
MDAMB330 = test system: MDAMB330
MCF10A = test system: MCF10A
MDAMB436 = test system: MDAMB436
HCC1569 = test system: HCC1569
ZR7530 = test system: ZR7530
184A1 = test system: 184A1
HCC38 = test system: HCC38
PDX1328 = test system: PDX1328
MDAMB468 = test system: MDAMB468

| Compound | GRmax, 72 h (SUM149) | GRmax, 72 h (SUM159) | GRmax, 72 h (CAMA1) | GRmax, 72 h (MDAMB330) | GRmax, 72 h (MCF10A) | GRmax, 72 h (MDAMB436) | GRmax, 72 h (HCC1569) | GRmax, 72 h (ZR7530) | GRmax, 72 h (184A1) | GRmax, 72 h (HCC38) | GRmax, 72 h (PDX1328) | GRmax, 72 h (MDAMB468) | GRmax, 72 h (SUM149; main component drawn) | GRmax, 72 h (SUM159; main component drawn) | GRmax, 72 h (CAMA1; main component drawn) | GRmax, 72 h (MCF10A; main component drawn) | GRmax, 72 h (MDAMB436; main component drawn) | GRmax, 72 h (HCC38; main component drawn) | GRmax, 72 h (PDX1328; main component drawn) | GRmax, 72 h (MDAMB468; main component drawn) |
| --- | --- | --- | --- | --- | --- | --- | --- | --- | --- | --- | --- | --- | --- | --- | --- | --- | --- | --- | --- | --- |
| C=CCn1c(=O)c2cnc(Nc3ccc(N4CCN(C)CC4)cc3)nc2n1-c1cccc(C(C)(C)O)n1 [AZD1775] (max 10 µM) | -0.497 GR | -0.152 GR | -0.206 GR | -0.234 GR | 0.0997 GR | -0.26 GR | -0.167 GR | -0.501 GR | 0.0471 GR | -0.492 GR | -0.32 GR | -0.492 GR |  |  |  |  |  |  |  |  |
| CNC(=O)c1cccc(-c2ccc3c(N4CCOC[C@@H]4C)nc(N4CCOC[C@@H]4C)nc3n2)c1 [AZD2014] (max 10 µM) | 0.418 GR | 0.113 GR | -0.0933 GR | -0.733 GR | 0.183 GR | 0.519 GR | 0.0746 GR | -0.24 GR | 0.0847 GR | 0.195 GR | 0.0715 GR | 0.23 GR |  |  |  |  |  |  |  |  |
| NC1(C(=O)N[C@@H](CCO)c2ccc(Cl)cc2)CCN(c2nc[nH]c3nccc2-3)CC1 [AZD5363] (max 10 µM) | 0.34 GR | 0.444 GR | -0.124 GR | -0.643 GR | 0.805 GR | 0.728 GR | 0.0764 GR | 0.187 GR | 0.773 GR | 0.731 GR | 0.766 GR | 0.545 GR |  |  |  |  |  |  |  |  |
| C[C@@H]1COCCN1c1cc(C2([S@](C)(=N)=O)CC2)nc(-c2cc[nH]c3nccc2-3)n1 [AZD6738] (max 10 µM) | -0.297 GR | 0.497 GR | 0.25 GR | 0.12 GR | 0.442 GR | 0.363 GR | -0.0623 GR | 0.61 GR | 0.518 GR | -0.271 GR | 0.299 GR | 0.529 GR |  |  |  |  |  |  |  |  |
| NC(=O)Nc1cc(-c2cccc(F)c2)sc1C(=O)N[C@H]1CCCNC1 [AZD7762] (max 10 µM) | -0.477 GR | -0.278 GR | -0.0865 GR | -0.607 GR | -0.18 GR | -0.281 GR | -0.411 GR | 0.0949 GR | -0.513 GR | -0.334 GR | -0.578 GR | -0.586 GR |  |  |  |  |  |  |  |  |
| Cc1nc(NC(=O)N2CCC[C@H]2C(N)=O)sc1-c1ccnc(C(C)(C)C(F)(F)F)c1 [Alpelisib/BYL719] (max 10 µM) | 0.848 GR | 0.602 GR | 0.979 GR | -0.555 GR | 0.579 GR | 0.725 GR | 0.369 GR | -0.0068 GR | 0.431 GR | 0.68 GR | 0.203 GR | 0.714 GR |  |  |  |  |  |  |  |  |
| CN(C)C/C=C/C(=O)Nc1ccc(O[C@@H]2CCC[C@@H](Nc3ncc(Cl)c(-c4c[nH]c5ccccc45)n3)C2)cc1 [BSJ-01-175] (max 10 µM) | -0.617 GR | -0.473 GR | -0.712 GR | -0.971 GR | -0.566 GR | -0.598 GR | -0.762 GR | -0.943 GR | -0.452 GR | -0.564 GR | -0.254 GR | -0.617 GR |  |  |  |  |  |  |  |  |
| CC(=O)c1c(C)c2cnc(Nc3ccc(N4CCN(CCOCCOCCOCCNC(=O)COc5cccc6c5C(=O)N(C5CCC(=O)NC5=O)C6=O)CC4)cn3)nc2n(C2CCCC2)c1=O (stereo unspecified) [BSJ-03-123] (max 10 µM) | -0.0089 GR | -0.042 GR | 0.0546 GR | -0.0919 GR | -0.113 GR | -0.0126 GR | -0.03 GR | -0.258 GR | -0.137 GR | -0.0999 GR | 0.28 GR | -0.0298 GR |  |  |  |  |  |  |  |  |
| CC(C)Nc1cc(-c2c[nH]c(C(=O)N[C@H](CO)c3cccc(Cl)c3)c2)c(Cl)cn1 [BVD523] (max 10 µM) | 0.204 GR | 0.156 GR | 0.156 GR | 0.356 GR | 0.185 GR | 0.649 GR | 0.568 GR | 0.562 GR | 0.046 GR | 0.371 GR | 0.752 GR | 0.402 GR |  |  |  |  |  |  |  |  |
| Cc1c(N)nc([C@H](CC(N)=O)NC[C@H](N)C(N)=O)nc1C(=O)N[C@H](C(=O)N[C@H](C)[C@@H](O)[C@H](C)C(=O)N[C@H](C(=O)NCCc1nc(-c2nc(C(=O)NCCC[S+](C)C)cs2)cs1)[C@@H](C)O)[C@@H](OC1OC(CO)C(O)C(O)C1OC1OC(CO)C(O)C(OC(N)=O)C1O)c1cnc[nH]1 (stereo partly specified) [Bleomycin] (max 10 µM) |  |  |  |  |  |  |  |  |  |  |  |  | -0.315 GR | -0.21 GR | -0.0365 GR | 0.0378 GR | -0.12 GR | -0.232 GR | 0.306 GR | -0.21 GR |
| Nc1cc(C(F)(F)F)c(-c2cc(N3CCOCC3)nc(N3CCOCC3)n2)cn1 [Buparlisib/NVP-BKM120] (max 10 µM) | -0.331 GR | -0.279 GR | -0.422 GR | -0.858 GR | -0.16 GR | -0.287 GR | -0.163 GR | -0.408 GR | -0.0111 GR | -0.276 GR | -0.351 GR | -0.516 GR |  |  |  |  |  |  |  |  |
| COc1cc2nccc(Oc3ccc(NC(=O)C4(C(=O)Nc5ccc(F)cc5)CC4)cc3)c2cc1OC [Cabozantinib] (max 10 µM) | 0.3 GR | 0.257 GR | 0.244 GR | 0.743 GR | 0.843 GR | 0.0862 GR | 0.723 GR | 0.449 GR | 0.121 GR | 0.301 GR | 0.251 GR | 0.423 GR |  |  |  |  |  |  |  |  |
| N.N.[Cl][Pt][Cl] [Cisplatin] (max 10 µM) | -0.229 GR | 0.0896 GR | -0.0042 GR |  | 0.379 GR | -0.0204 GR |  |  |  | -0.103 GR | -0.422 GR | -0.287 GR |  |  |  |  |  |  |  |  |
| CC[C@@]1(O)C(=O)OCc2c1cc1n(c2=O)Cc2cc3c(CN(C)C)c(O)ccc3nc2-1 [Topotecan] (max 10 µM) | -0.46 GR | -0.454 GR | -0.423 GR |  | -0.2 GR | -0.14 GR |  |  |  | -0.504 GR | -0.913 GR | -0.658 GR |  |  |  |  |  |  |  |  |
